# Paper PMC3861733 (Molecular & Cellular Proteomics : MCP, 2013)
# T1: Saci-PP2A (Sulfolobus acidocaldarius, UniProt Q4JAD1)
# T1 sequence (Q4JAD1 1-293): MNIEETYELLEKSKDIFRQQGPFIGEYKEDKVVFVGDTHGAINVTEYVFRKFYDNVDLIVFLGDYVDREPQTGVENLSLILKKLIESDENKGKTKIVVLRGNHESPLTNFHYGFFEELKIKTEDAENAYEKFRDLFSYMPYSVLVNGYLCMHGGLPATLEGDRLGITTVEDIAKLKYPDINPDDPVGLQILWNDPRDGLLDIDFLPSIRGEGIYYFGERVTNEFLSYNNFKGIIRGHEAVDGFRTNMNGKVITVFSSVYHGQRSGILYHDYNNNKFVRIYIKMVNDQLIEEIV
# Legend:
# [1] = molecular target: T1, Saci-PP2A; test: malachite green phosphate release assay, inhibition; assay type: biochemical; conditions: read-out: % activity at 10 nM
# [2] = substrate: O=[N+]([O-])c1ccc(OP(=O)(O)O)cc1; test: purified protein; assay type: biochemical, Sulfolobus acidocaldarius; conditions: 0.1 M HEPES/KOH pH 6.5, 70 °C, substrate inhibition above 2 mM
Molecule,activity at 0.01 µM [1] [%],Vmax [2] [µmol/min/mg]
C=C1[C@@H](O)[C@@H]2O[C@]3(CC[C@H](/C=C/[C@@H](C)[C@@H]4CC(C)=C[C@@]5(O[C@H](C[C@@](C)(O)C(=O)O)CC[C@H]5O)O4)O3)CC[C@H]2O[C@@H]1[C@@H](O)C[C@H](C)[C@H]1O[C@@]2(CCCCO2)CC[C@H]1C [okadaic acid],56,–
Saci-PTP (Sulfolobus acidocaldarius DSM 639) (protein) MYWVKKHVIGGSAIPYTQDEIIGWINEGVKRVLVLPEEFEIDEAWGSLEYYISVLKSFNIEYLYSPIPDGRAPSENQFLEIYKWLRKDKGNLVHCVGGIGRTGTILASYLVLEENMSAEEAIEEVRRVRPGAVQTYEQELFVFKVEKMKDKWKIL,–,3.7
